Like-named read-outs stand apart in the source and are kept apart here.

Data set [1] is described as follows: Solubility in water noted when preparing behavioral test concentrations. In kind it is physicochemical.
Description: (§1) The experimental protocol uses a 96-well plate, with one zebrafish larva (5 days post-fertilization) in 90 μL of fish water in each well. 10 μL of a 10× solution of compound in 10% DMSO was added to each well to achieve the final concentration shown in the data, and for a final concentration of 1% DMSO. […] The larvae were pre-treated with compound for four hours, followed by a two minute dark stimulation to ensure fish were not sedated, followed by a 15 minutes period of observation for deviation from the anticipated normal movement/swimming behavior. […] After a 15 minute observation period, the larvae were treated with PTZ to a final concentration of 5 mM, and the number of seizures per larva at each concentration quantified for 15 minutes following PTZ treatment. The DanioVision platform (Noldus) was used to perform the animal behavioral recoding and analysis.
In data set [2] the test system is pentylenetetrazole (PTZ) induced zebrafish seizure model. The conditions noted are these: for seizure count over 15 minutes after PTZ: 5 mM PTZ after 4 hour pre-incubation with compound, n=12, vs DMSO control; for concentration at which seizures were reduced: 5 mM PTZ after 4 hour pre-incubation.
Description: In these experiments, with reference to FIG. 38, following a four-hour drug incubation period, zebrafish larvae were pre-monitored for normal movements/swimming behavior for 17 minutes. […] At the 17-minute mark, the larvae were treated with PTZ to a final concentration of 5 mM, and the number of seizures per larva and the average number of seizures at each concentration were quantified for 15 minutes following PTZ exposure.
as §1
Data set [3] deals with kainic-acid induced seizure model. The conditions noted are these: mice, shown previously; cited from earlier work.
The test system of the next data set is animal models. The conditions noted are these: previously reported; cited from earlier work.
In data set [4] the test system is rat models of induced epilepsy. The conditions noted are these: literature; cited from earlier work.
Another data set deals with PTZ-larvae. The data set can be described thus: Calcium fluctuation traces and T-score BAM of PTZ-treated larval brains. It counts as in vivo, zebrafish. The conditions noted are these: 5 mM PTZ; 4 hour treatment at 10 μM. The text has this:
With reference to FIGS. 39C to 39E, Such pharmacological effects could also be observed in the diametrically opposed BAMS from zebrafish treated in the same manner. NNC-711 is thought to principally act through the inhibition of GABA uptake from the synaptic cleft and glia via inhibition of SLC6A1 (solute carrier family 6 member 1; (GAT1)) leading to increased GABA-ergic neurotransmission.

A further data set deals with zebrafish brain. The data set can be described thus: HT-BAMing whole-brain activity mapping (T-score BAM) by calcium imaging of awake larvae. The conditions noted are these: for change in brain neural activity (T-score BAM pattern): 10 μM dose, 15-minute perfusion, five larvae per compound. It counts as in vivo. As for the experimental part:
The transgenic zebrafish line elav13:GCaMP5G may be maintained in aquaria under standard laboratory conditions (at 28° C. under a cycle of 14 h light, 10 h dark). Larvae of 6-8 dpf were used in the HT-BAMing experiments.
For example, the imaging process may be performed on a fully automated inverted fluorescent microscope (Olympus IX81) equipped with a cooled sCMOS camera (Neo, ANDOR) with a 10× (NA, 0.4) objective. Micro-manager 1.4 may be installed to control the microscope. For high-resolution, confocal imaging and Leica SP8 microscope with a resonant scanner may be used.
Furthermore, a drug perfusion time may be set in which the two syringes may contain different fluid or solutions such that the changes induced by the drug may be recorded. With reference to FIGS. 8 and 9, to generate the functional BAM of a larva in response to a 15-minute period of chemical perfusion, or “treatment”, each larva was imaged over a 10-minute period before and after treatment.
In the experiments performed by the inventors, all drugs or compounds were dissolved in DMSO as a vehicle as ˜10 mM stock solutions. Treatment of the larvae was performed simply by switching the perfusion solution after immobilizing larvae in the microfluidic chip as shown in FIG. 8. Final concentrations of compounds tested in the primary screen were […].
In one example embodiment, the transformation module 106 is arrange to construct the brain activity maps 110 based on counting neural spikes representing changes of brain activity as detected on the images obtained. With reference to FIGS. 1 and 9, readings from multiple focal planes along the Z-axis (ventral direction) were acquired, and accumulated spike counts were derived from the calcium fluctuations of each Z-plane with a lateral resolution of 15.21 μm^2. The difference in spike-counts between the post- and pre-treatment periods was calculated and projected (by summing up along the Z-axis) to a two-dimensional surface to construct a BAM that reflects changes in brain activity and physiology of an individual larva in response to treatment.
With reference also to FIG. 10, a heat map may be used to intuitively display the activation level of the brain. To map brain activity, every collected frame from calcium imaging may be first meshed into small ROIs, each with a size of 15.21 μm^2. The time series of fluorescence signal in each ROI may then be filtered by a high pass filter to remove the interference from illumination fluctuations. The resulting trace may be used to calculate and visualize the spiking activities. For spike counting, a threshold may be applied to detect spikes from neural activity.
In the experiment, for each compound, the spike count data from five independent zebrafish larvae over a 10-minute period before and a 15-minute period after compound treatment. Before comparison across different samples, all the images were first resized and aligned to a uniform zebrafish brain template with the following process: for each raw image, the dark background was first removed to extract the fluorescent brain region, which was then mapped to the standard template via specific transformative adjustments (e.g. rotation, translation) using the brain center-line as a registration landmark and such that the symmetry with respect to the center-line was maximized in the resulted image. Lastly, the fish eye region was further removed by taking the regions within the template for downstream analysis.
A brain activity map (BAM) A=[aij] was then derived by taking the change (increase or decrease) of spike counts in each ROI before (t0) and after chemical treatment (t1), and summed across multiple layers along the Z-axis:
For each compound, BAMs from five individual larvae were acquired following treatment with a 10 μM dose.

For another data set, the system named is dopamine levels. The conditions noted are these: mice, literature; cited from earlier work.

In the case of `O=c1cc(-c2ccccc2)oc2c(O)c(O)ccc12` [7,8-dihydroxyflavone], in data set [1], the solubility entry was “highly insoluble in water”.

Take `COc1ccc(CNC(=O)Nc2ncc([N+](=O)[O-])s2)cc1` [AR-A014418]: the solubility entry in data set [1] (water / fish water, 1% DMSO) is reported as “highly insoluble in water”.

With `CC1=NN=C(c2ccc(N)cc2)c2cc3c(cc2C1)OCO3` [GYKI-52466], the “seizure count over 15 minutes after PTZ” value in data set [2] is “confirmed”; in data set [2] (listed as GYKI 54266), “hit compounds”. Besides, in data set [3], the “anticonvulsant activity in kainic-acid induced seizure model” value was “anticonvulsant activity”.

As for `Oc1noc2c1CCNC2` [Gaboxadol], the “anti-epileptic activity in animal models” value in the data set with animal models is recorded as “anti-epileptic activity”.

Regarding `O=C(O)C1=CCCN(CCON=C(c2ccccc2)c2ccccc2)C1` [NNC-711, NNC 711], the “anticonvulsant efficacy in rat models of induced epilepsy” value in data set [4] was “anticonvulsant efficacy”. The “seizure activity in larval brain (calcium fluctuation, T-score BAM)” value in the data set with PTZ-larvae is on record as “reduction of seizure activity”. Also, the “concentration at which seizures were reduced” value in data set [2] was determined as 25 µM. Also, the “anti-epileptic activity in animal models” value with animal models is recorded as “anti-epileptic activity”.

`OC(CNc1ccccc1)Cn1c2ccc(Br)cc2c2cc(Br)ccc21` (centres unmarked) [P7C3]: the solubility result in data set [1] (water / fish water, 1% DMSO) is listed as “highly insoluble in water”.

As to `Cc1ncc(CSSCc2cnc(C)c(O)c2CO)c(CO)c1O` [Pyrithioxine], the “change in brain neural activity (T-score BAM pattern)” value (“change in brain neural activity” below) with zebrafish brain was “increased activity brain-wide”. Further, the “change of action potential firing rate in selected neuronal cells from a zebrafish brain” value in the data set on zebrafish brain (FIG. 9, after drug treatment) was “excitation”.

Consider `Cl.O=C(O)C1CCCN(CCC=C(c2ccccc2)c2ccccc2)C1` (centres unmarked) [SKF89976A, SKF 89976A], for which, in the data set on animal models, the “anti-epileptic activity in animal models” value was “anti-epileptic activity”.

For `OCCCCC#Cc1cncc(OC[C@@H]2CCN2)c1` [Sazetidine], the “seizure count over 15 minutes after PTZ” value in data set [2] is reported as “hit compounds”.

Take `CNC(=O)[C@@H](Cc1ccccc1)N(C)C(=O)[C@@H](Cc1ccc2ccccc2c1)N(C)C(=O)/C=C/CC(C)(C)N` [Tabimorelin]: in data set [2], the “seizure count over 15 minutes after PTZ” value is “hit compounds”.

As to `CN1CCc2c(c3ccccc3n2Cc2ccc(C(=O)NO)cc2)C1` [Tubastatin A], in data set [2], the “concentration at which seizures were reduced” value came to 500 µM and the “seizure count over 15 minutes after PTZ” value is given as “hit compounds”. Also, the “seizure count over 15 minutes after PTZ” value in data set [2] (listed as Tubastatin-A) is “reduced seizure count”.

For `COc1ccc(/C=C/c2cc(OC)cc(=O)o2)cc1` [Yangonin], the “seizure count over 15 minutes after PTZ” value in data set [2] was “hit compounds”. Moreover, the solubility result in data set [1] is given as “highly insoluble in water”.

As for `COc1ccc2cc3[n+](cc2c1OC)CCc1cc2c(cc1-3)OCO2` [berberine, Berberine], the “effect on dopamine levels” value in the data set with dopamine levels is on record as “increase dopamine levels”.

With `NC(=O)N1c2ccccc2C=Cc2ccccc21` [carbamazepine, Carbamazepine], the “change in brain neural activity” value with zebrafish brain is given as “inhibition of activity across almost the entire brain”.

Regarding `CCC1(C)CC(=O)NC1=O` (centres unmarked) [ethosuximide, Ethosuximide], in the data set with zebrafish brain, the “change in brain neural activity” value is given as “inhibition of activity across almost the entire brain”.

In the case of `Nc1nnc(-c2cccc(Cl)c2Cl)c(N)n1` [lamotrigine, Lamotrigine], the “change in brain neural activity” value in the data set on zebrafish brain is reported as “inhibition of activity across almost the entire brain”.

As to `CC[C@@H](C(N)=O)N1CCCC1=O` [levetiracetam, Levetiracetam], the “change in brain neural activity” value in the data set on zebrafish brain is “inhibition of activity across almost the entire brain”.

On to `NC(=O)N1c2ccccc2CC(=O)c2ccccc21` [oxcarbazepine], for which the “change in brain neural activity” value with zebrafish brain was “inhibition of activity across almost the entire brain”.

Turning to `N#Cc1ccccc1-c1cc(-c2ccccn2)cn(-c2ccccc2)c1=O` [perampanel, Perampanel], in the data set with zebrafish brain, the “change in brain neural activity” value is “inhibition of activity across almost the entire brain”.

In the case of `NC(=O)CCC/N=C(\c1ccc(Cl)cc1)c1cc(F)ccc1O` [progabide, Progabide], in the data set on zebrafish brain, the “change in brain neural activity” value is on record as “inhibition of activity across almost the entire brain”.

With `COc1cccc([C@H](O)C2CCN(CCc3ccc(F)cc3)CC2)c1OC` [volinanserin], the “seizure count over 15 minutes after PTZ” value is given as “reduced seizures” in data set [2] and “hit compounds” in data set [2] (listed as Volinanerin). Besides, in data set [1], the solubility entry was “highly insoluble in water”.

The record behind these values is patent US11490856B2, “Method and a system for analyzing neuropharmacology of a drug” (City University of Hong Kong, priority 2018, dated 2022).
